Experimental data from ChEMBL document CHEMBL1201862, “PubChem BioAssay data set” (2004).
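Assay format: 96-well plates, 48-hour exposure. GI50 = concentration required for 50% inhibition of growth.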 The source made the active and inactive calls. Cut-off read from the data, not from the text of the source: active = GI50 up to about 1.1 µM and inactive = higher.

Columns and labels:
Assay in all cases: NCI anticancer screen, dose series, 48 h
A549 = test system: A549
CAKI-1 = test system: CAKI-1
HCC 2998 = test system: HCC 2998
HL-60 = test system: HL-60
HOP-92 = test system: HOP-92
HT-29 = test system: HT-29
Hs-578T = test system: Hs-578T
LOX IMVI = test system: LOX IMVI
M14 = test system: M14
MOLT-4 = test system: MOLT-4
NCI-H23 = test system: NCI-H23
NCI-H460 = test system: NCI-H460
OVCAR-4 = test system: OVCAR-4
PC-3 = test system: PC-3
RXF 393 = test system: RXF 393
SF-268 = test system: SF-268
SNB-75 = test system: SNB-75
TK-10 = test system: TK-10
UACC-62 = test system: UACC-62
UO-31 = test system: UO-31

Measured: GI50

Cc1cccc2c1CC(C1OC(=O)c3ccccc31)C2=O (stereo not given)
inactive: A549 > 100 µM | CAKI-1 > 100 µM | HCC 2998 > 100 µM | HL-60 > 100 µM | HOP-92 > 100 µM | HT-29 48.5 µM | Hs-578T > 100 µM | LOX IMVI > 100 µM | M14 > 100 µM | MOLT-4 > 100 µM | NCI-H23 > 100 µM | NCI-H460 > 100 µM | OVCAR-4 > 100 µM | PC-3 > 100 µM | RXF 393 > 100 µM | SF-268 > 100 µM | SNB-75 > 100 µM | TK-10 > 100 µM | UACC-62 > 100 µM | UO-31 > 100 µM

NC(=O)NCCCC(NC(=O)OCCCCCn1ccc(=O)[nH]c1=O)C(=O)O (stereo not given)
inactive: A549 > 100 µM | CAKI-1 > 100 µM | HCC 2998 > 100 µM | HL-60 > 100 µM | HOP-92 > 100 µM | HT-29 > 100 µM | Hs-578T > 100 µM | LOX IMVI > 100 µM | M14 > 100 µM | MOLT-4 > 100 µM | NCI-H23 > 100 µM | NCI-H460 > 100 µM | OVCAR-4 > 100 µM | PC-3 > 100 µM | RXF 393 > 100 µM | SF-268 > 100 µM | SNB-75 > 100 µM | TK-10 > 100 µM | UACC-62 > 100 µM | UO-31 > 100 µM

O=c1cc(NNc2cccc3ccccc23)[nH]c(=O)[nH]1
inactive: A549 17.9 µM | CAKI-1 14.7 µM | HCC 2998 20 µM | HL-60 2.9 µM | HOP-92 17.4 µM | HT-29 17.6 µM | Hs-578T 26.2 µM | LOX IMVI 13.6 µM | M14 15.9 µM | MOLT-4 17.7 µM | NCI-H23 15.3 µM | NCI-H460 18.8 µM | OVCAR-4 17.2 µM | PC-3 13.8 µM | RXF 393 17.9 µM | SF-268 16.4 µM | SNB-75 16.6 µM | TK-10 19.7 µM | UACC-62 17.5 µM | UO-31 16.3 µM

FC(F)(F)C1(c2ccccc2)SCc2nc3ccccc3n21 (stereo not given)
inactive: A549 > 100 µM | CAKI-1 > 100 µM | HCC 2998 > 100 µM | HL-60 24.2 µM | HOP-92 47.2 µM | HT-29 62.5 µM | Hs-578T > 100 µM | LOX IMVI 97.5 µM | M14 > 100 µM | MOLT-4 61.7 µM | NCI-H23 71.9 µM | NCI-H460 80.9 µM | OVCAR-4 > 100 µM | PC-3 83.6 µM | RXF 393 > 100 µM | SF-268 > 100 µM | SNB-75 88.1 µM | TK-10 > 100 µM | UACC-62 > 100 µM | UO-31 55.5 µM

COC(=O)C1=C(C(=O)OC)C2(c3ccccc3)c3ccccc3C(=O)C1N2C1CCCCC1 (stereo not given)
inactive: A549 17.7 µM | CAKI-1 49.1 µM | HCC 2998 23.2 µM | HL-60 3.1 µM | HOP-92 > 100 µM | HT-29 42.1 µM | Hs-578T 40.9 µM | LOX IMVI 22 µM | M14 43.3 µM | MOLT-4 6.61 µM | NCI-H23 > 52.5 µM | NCI-H460 24.5 µM | OVCAR-4 58.2 µM | PC-3 10.6 µM | RXF 393 33.7 µM | SF-268 88.7 µM | SNB-75 > 66.8 µM | TK-10 31.3 µM | UACC-62 61.8 µM | UO-31 13 µM

COc1ccc2c(c1)N=C1CSC(c3cc([N+](=O)[O-])ccc3Cl)N1C2 (stereo not given)
inactive: A549 30.9 µM | CAKI-1 22 µM | HCC 2998 16.6 µM | HL-60 22.5 µM | HOP-92 19.6 µM | HT-29 23.6 µM | Hs-578T 39.8 µM | LOX IMVI 33 µM | M14 27.5 µM | MOLT-4 22.5 µM | NCI-H23 22.2 µM | NCI-H460 19.4 µM | OVCAR-4 23.8 µM | PC-3 21.5 µM | RXF 393 19.8 µM | SF-268 34.5 µM | SNB-75 19.2 µM | TK-10 21.4 µM | UACC-62 18.8 µM | UO-31 19.6 µM

C#CC(O)/C=C/C(O)CCCC(O)CC#CC(O)C#CC(O)CCCC(O)/C=C/CCCC(=O)CCCCCCCCCCCCCCCC(O)C(O)C#CC(=O)O (stereo not given)
inactive: A549 > 50 µM | CAKI-1 > 50 µM | HCC 2998 > 50 µM | HL-60 13.2 µM | HOP-92 > 50 µM | HT-29 28.1 µM | Hs-578T > 50 µM | LOX IMVI 10.3 µM | M14 > 50 µM | MOLT-4 43.6 µM | NCI-H23 > 50 µM | NCI-H460 > 50 µM | OVCAR-4 12.5 µM | PC-3 > 50 µM | RXF 393 > 50 µM | SF-268 > 50 µM | SNB-75 20.1 µM | TK-10 > 50 µM | UACC-62 > 50 µM | UO-31 10.8 µM
